The source made the active and inactive calls.
Experiments:
Mu-type opioid receptor = Mu-type opioid receptor (Homo sapiens, UniProt P35372); assay: SAR Analysis of Antagonists of the MOR Receptor using an Image-Based Assay - Set 3. [Related pubchem assays (depositor defined):AID1777, AID1785, AID1786, AID1966, AID2133, AID2136, AID2284, AID2285, AID2420]; format: functional
[1] = biological target: T1, Kappa-type opioid receptor (Homo sapiens, UniProt P41145); assay: SAR analysis of small molecule antagonists of the kappa opioid receptor via a luminescent beta-arrestin assay - Set 6. [Related pubchem assays (depositor defined):AID1777, AID1778, AID1785, AID1786, AID1966, AID2133, AID2136, AID2285]; format: functional
[2] = biological target: T1, Kappa-type opioid receptor; assay: SAR analysis of small molecule antagonists of the kappa opioid receptor via a luminescent beta-arrestin assay - Set 4. [Related pubchem assays (depositor defined):AID1777, AID1778, AID1785, AID1786, AID1966, AID2133, AID2136, AID2285]; format: functional
[3] = biological target: Delta-type opioid receptor (Homo sapiens, UniProt P41143); assay: SAR Analysis of Antagonists of the DOR Receptor using an Image-Based Assay - Set 3. [Related pubchem assays (depositor defined):AID1777, AID1785]; format: functional;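 further: U2OS cells expressing DOR1 and beta-arrestin GFP stimulated with 100 nM SNC80; imaging of GFP-tagged beta-arrestin moving into spots after receptor activation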
[4] = biological target: T1, Kappa-type opioid receptor; assay: SAR analysis of Antagonists of the Kappa Opioid Receptor (KOR) using an Image-Based Assay - Set 4. [Related pubchem assays (depositor defined):AID1777, AID1785]; format: functional
[5] = biological target: T2, E3 ubiquitin-protein ligase XIAP (Homo sapiens, UniProt P98170); assay: Counter Screen using XIAP-Bir3 for Chemical Antagonists of Bir1/2 domains of IAP-family anti-apoptotic proteins. [Related pubchem assays (depositor defined):AID1018, AID1449, AID1514, AID1638, AID1749, AID1750, AID488957, AID488963]
[6] = biological target: T2, E3 ubiquitin-protein ligase XIAP; assay: XIAP antagonists, biochemical, IAP family, fluorescence polarization (AID 1018); format: functional
[7] = biological target: Eukaryotic translation initiation factor 4H (Homo sapiens, UniProt Q15056); assay: eIF4H inhibition in translation initiation, SAR follow-up (AID 435011); format: functional
[8] = biological target: T3, Polyadenylate-binding protein 1 (Homo sapiens, UniProt P11940); assay: PABP inhibition in translation initiation, SAR follow-up (AID 435018); format: functional
Protein Rev = Protein Rev (Human immunodeficiency virus type 1 group M subtype B (isolate HXB2)(HIV-1), UniProt P04618); assay: inhibitors of Rev binding to RRE RNA, dose response, biochemical, fluorescence polarization, HIV-1 (AID 434976); design: species or system Human immunodeficiency virus 1
[9] = biological target: Female germline-specific tumor suppressor gld-1 (Caenorhabditis elegans, UniProt Q17339); assay: inhibitors of GLD-1 binding to TGE RNA, dose response, biochemical, fluorescence polarization, C. elegans (AID 2802);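 further: fluorescence polarization of labeled TGE RNA bound by purified gld-1 protein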
[10] = biological target: T3, Polyadenylate-binding protein 1; assay: PABP1 MLLE–PAM2 interaction inhibitors, dose response, miRNA deadenylation inhibitor project, biochemical, fluorescence polarization, Cy5-PAM2 peptide, secondary (AID 602260); format: functional; details: read-out: IC50_Mean
[11] = biological target: T3, Polyadenylate-binding protein 1; assay: PABP1 MLLE–PAM2 binding inhibitor potency, dose response, biochemical, fluorescence polarization, FITC-PAM2 peptide (AID 602259); format: functional; details: read-out: IC50_Mean
[12] = biological target: T4, Sentrin-specific protease 1 (Homo sapiens, UniProt Q9P0U3); assay: potency of human SENP1 inhibitors, dose response, biochemical, kinetic FRET (AID 651697); format: functional; details: read-out: IC50_Mean
T4 sequence (Q9P0U3 whole entry): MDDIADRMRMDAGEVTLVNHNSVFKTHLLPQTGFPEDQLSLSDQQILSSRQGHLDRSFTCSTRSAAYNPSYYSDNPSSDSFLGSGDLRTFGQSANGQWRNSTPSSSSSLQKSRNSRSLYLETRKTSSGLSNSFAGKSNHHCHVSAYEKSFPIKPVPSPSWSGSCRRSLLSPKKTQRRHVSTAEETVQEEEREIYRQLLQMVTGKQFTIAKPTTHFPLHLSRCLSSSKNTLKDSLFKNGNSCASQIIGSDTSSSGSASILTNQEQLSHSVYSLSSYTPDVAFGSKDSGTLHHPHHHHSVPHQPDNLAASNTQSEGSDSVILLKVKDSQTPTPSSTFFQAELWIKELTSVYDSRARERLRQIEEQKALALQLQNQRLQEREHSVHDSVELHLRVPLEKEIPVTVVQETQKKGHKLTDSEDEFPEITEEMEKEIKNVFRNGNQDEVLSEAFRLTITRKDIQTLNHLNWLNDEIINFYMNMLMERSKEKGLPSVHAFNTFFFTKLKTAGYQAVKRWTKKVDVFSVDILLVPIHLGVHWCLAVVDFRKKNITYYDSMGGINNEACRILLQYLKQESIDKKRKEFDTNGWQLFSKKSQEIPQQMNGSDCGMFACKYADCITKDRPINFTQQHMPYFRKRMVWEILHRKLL

[13] = biological target: T4, Sentrin-specific protease 1; assay: Dose response confirmation of small molecule inhibitors of the catalytic domain of the SUMO protease, SENP1 in a FRET assay.; format: functional; details: read-out: IC50_Mean
Troponin, cardiac muscle = Troponin, cardiac muscle (Homo sapiens, UniProt P19429+P45379+P63316); assay: Fluorescence-based biochemical high throughput dose response assay for activators of the calcium sensitivity of cardiac Regulated Thin Filaments (RTF). [Related pubchem assays (depositor defined):AID493008, AID493018, AID504382, AID504383]; format: protein-complex assay
[14] = Luminescence Cell-Based Dose Confirmation HTS to Identify Activators of 5'UTR Stem-Loop Driven Alpha-Synuclein mRNA Translation in H4 Neuroglioblastoma Cells. [Related pubchem assays: 1829 (Project Summary), 1814 (Primary HTS)]; format: functional
[15] = Luminescence Cell-Based Dose Response HTS to Identify Activators of Luciferase Translation or Activity in H4 […] Cells. [Related pubchem assays: 1829 (Project Summary), 1814 (Primary HTS)]; format: functional
[16] = biological target: Sphingosine 1-phosphate receptor 4 (Homo sapiens, UniProt O95977); assay: Late-stage fluorescence dose response cell-based assay to identify agonists of the Sphingosine 1-Phosphate Receptor 4 (S1P4): purchased compounds EC50. [Related pubchem assays (depositor defined):AID1509, AID1523, AID1563, AID1686, AID1701, AID1801]; format: functional
Sphingosine 1-phosphate receptor 4, sequence (O95977 whole entry): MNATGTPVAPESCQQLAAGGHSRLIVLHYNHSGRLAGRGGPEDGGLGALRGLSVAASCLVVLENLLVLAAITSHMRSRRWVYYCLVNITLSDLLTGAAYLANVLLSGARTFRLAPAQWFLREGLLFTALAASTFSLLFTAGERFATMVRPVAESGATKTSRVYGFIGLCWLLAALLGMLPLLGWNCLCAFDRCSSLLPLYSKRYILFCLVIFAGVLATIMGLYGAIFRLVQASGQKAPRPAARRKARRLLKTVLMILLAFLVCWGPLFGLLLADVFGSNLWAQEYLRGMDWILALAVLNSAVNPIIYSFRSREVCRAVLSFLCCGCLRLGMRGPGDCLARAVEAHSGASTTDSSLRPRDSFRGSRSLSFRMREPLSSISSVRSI

T3 sequence (P11940 whole entry): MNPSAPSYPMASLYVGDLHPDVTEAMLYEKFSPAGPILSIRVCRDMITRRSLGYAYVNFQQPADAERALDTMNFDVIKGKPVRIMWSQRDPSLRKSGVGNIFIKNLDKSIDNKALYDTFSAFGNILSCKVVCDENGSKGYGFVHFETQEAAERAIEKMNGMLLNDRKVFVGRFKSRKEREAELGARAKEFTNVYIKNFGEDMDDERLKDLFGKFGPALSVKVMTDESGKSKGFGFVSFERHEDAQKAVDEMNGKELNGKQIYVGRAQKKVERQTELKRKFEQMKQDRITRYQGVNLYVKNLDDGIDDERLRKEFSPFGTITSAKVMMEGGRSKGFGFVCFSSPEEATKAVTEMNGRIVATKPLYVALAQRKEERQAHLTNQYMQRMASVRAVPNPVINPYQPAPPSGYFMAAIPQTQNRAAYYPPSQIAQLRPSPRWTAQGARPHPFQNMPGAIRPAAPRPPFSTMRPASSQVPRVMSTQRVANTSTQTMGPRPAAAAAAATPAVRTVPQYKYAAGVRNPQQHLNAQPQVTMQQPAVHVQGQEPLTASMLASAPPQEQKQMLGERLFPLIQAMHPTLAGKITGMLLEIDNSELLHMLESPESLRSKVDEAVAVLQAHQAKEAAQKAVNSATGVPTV
T1 sequence (P41145 whole entry): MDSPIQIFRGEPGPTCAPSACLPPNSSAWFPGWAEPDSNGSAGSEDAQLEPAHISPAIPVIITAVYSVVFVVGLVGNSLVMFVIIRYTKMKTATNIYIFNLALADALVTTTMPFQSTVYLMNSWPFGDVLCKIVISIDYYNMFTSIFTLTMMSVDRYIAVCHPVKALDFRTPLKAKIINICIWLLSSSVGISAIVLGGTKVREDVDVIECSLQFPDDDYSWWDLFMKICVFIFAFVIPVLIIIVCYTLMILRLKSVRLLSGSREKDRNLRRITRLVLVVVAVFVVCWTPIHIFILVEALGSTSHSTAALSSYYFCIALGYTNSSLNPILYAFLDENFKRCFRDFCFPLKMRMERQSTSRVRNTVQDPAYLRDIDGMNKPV
T2 sequence (P98170 whole entry): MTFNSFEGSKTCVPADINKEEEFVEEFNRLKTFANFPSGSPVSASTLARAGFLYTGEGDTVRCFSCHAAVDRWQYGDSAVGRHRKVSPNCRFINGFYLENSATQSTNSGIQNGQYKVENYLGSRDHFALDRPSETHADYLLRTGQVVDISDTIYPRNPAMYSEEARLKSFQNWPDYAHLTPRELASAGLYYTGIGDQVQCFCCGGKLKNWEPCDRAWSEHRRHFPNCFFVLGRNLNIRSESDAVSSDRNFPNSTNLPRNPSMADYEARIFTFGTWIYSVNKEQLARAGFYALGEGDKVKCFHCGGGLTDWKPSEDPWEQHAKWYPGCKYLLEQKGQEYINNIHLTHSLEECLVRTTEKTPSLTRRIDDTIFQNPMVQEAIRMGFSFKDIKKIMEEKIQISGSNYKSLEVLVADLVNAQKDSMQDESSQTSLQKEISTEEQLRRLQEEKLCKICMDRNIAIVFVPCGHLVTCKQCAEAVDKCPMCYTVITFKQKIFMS
Delta-type opioid receptor, sequence (P41143 whole entry): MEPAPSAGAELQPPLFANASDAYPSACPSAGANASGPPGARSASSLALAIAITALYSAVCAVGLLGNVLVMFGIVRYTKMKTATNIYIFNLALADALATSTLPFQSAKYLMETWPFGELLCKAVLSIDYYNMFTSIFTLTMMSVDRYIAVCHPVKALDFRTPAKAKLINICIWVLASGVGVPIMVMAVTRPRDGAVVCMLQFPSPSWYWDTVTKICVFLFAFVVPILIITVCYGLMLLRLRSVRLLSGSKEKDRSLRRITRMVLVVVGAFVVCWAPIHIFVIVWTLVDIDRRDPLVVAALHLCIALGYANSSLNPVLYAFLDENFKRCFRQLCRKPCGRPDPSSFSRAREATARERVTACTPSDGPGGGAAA
Protein Rev, sequence (P04618 whole entry): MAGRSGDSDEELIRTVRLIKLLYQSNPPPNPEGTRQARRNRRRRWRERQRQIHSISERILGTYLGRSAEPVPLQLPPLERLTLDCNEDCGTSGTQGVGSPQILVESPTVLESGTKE
Mu-type opioid receptor, sequence (P35372 whole entry): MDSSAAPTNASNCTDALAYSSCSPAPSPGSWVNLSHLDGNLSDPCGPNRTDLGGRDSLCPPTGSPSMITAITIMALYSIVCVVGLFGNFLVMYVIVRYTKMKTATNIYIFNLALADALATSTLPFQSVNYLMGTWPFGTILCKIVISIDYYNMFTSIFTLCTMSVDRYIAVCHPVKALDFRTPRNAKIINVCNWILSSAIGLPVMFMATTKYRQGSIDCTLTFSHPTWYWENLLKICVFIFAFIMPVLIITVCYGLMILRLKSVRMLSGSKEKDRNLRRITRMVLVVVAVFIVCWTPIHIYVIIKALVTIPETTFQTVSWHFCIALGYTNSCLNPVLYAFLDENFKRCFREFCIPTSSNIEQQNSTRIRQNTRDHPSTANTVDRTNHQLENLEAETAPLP
Female germline-specific tumor suppressor gld-1, sequence (Q17339 whole entry): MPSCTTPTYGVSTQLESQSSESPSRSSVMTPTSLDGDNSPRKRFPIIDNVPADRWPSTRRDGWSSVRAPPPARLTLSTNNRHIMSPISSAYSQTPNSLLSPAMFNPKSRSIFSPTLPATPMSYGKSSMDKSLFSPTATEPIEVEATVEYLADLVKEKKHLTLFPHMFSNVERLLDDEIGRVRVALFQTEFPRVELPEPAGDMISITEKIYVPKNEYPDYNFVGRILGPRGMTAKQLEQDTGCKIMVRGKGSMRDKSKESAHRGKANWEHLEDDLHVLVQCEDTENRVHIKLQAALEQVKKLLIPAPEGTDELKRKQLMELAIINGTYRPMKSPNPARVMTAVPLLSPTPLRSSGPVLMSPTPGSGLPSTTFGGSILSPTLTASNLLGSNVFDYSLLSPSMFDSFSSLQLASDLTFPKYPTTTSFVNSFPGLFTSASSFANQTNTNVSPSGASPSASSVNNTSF

CC(C)N(CCNC(=O)c1ccc(CNS(=O)(=O)c2ccc3ccccc3c2)cc1)Cc1ccccc1
IC50 (Mu-type opioid receptor): > 32 µM (inactive) | IC50 [1]: 5.52 µM (active) | IC50 [2]: 2.33 µM (active) | IC50 [3]: 31.3 µM (inactive) | IC50 [4]: 0.16 µM (active)

CCOc1ccc2cc(C(=O)c3ccccc3)c(=O)oc2c1
IC50 [5]: > 100 µM (inactive) | IC50 [6]: > 100 µM (not active)

CCc1nnc(NC(=O)CSc2ccc(-c3ccco3)nn2)s1
IC50 [7]: 9.04 µM (active) | IC50 [8]: 64.4 µM (active)

O=C1C=C(O)c2cccc3cccc1c23
IC50 (Protein Rev): 13.9 µM (not active) | IC50 [9]: 6.13 µM (active) | IC50 [10]: 33.1 µM (inactive) | IC50 [11]: 34.5 µM (inactive) | IC50 [12]: 13.1 µM (active) | IC50 [13]: 8.55 µM (active)

O=C(c1ccc(COc2ccccc2Br)o1)N1N=C(C(F)F)CC1(O)C(F)F (centres undefined)
EC50 (Troponin, cardiac muscle): > 71.5 µM (inactive)

Cc1ccc(OCCOc2cccc(Br)c2)c([N+](=O)[O-])n1
EC50 [14]: 5.57 µM (active) | EC50 [15]: 27.6 µM (active) | EC50 [16]: > 50 µM (inactive)

Reference: ChEMBL document CHEMBL1201862, “PubChem BioAssay data set” (2004)
